Each molecule was assayed on T125A mutant virus (HIV-1 NL-432 recombinant molecular clone, IN gene) (assay: HIV replication inhibition assay against integrase 124/125 mutant virus (Test Example 2)). Conditions: Human immunodeficiency virus 1, MT4, read-out: EC50 against T125A mutant virus, T125A mutant virus (HIV-1 NL-432 IN gene), MT-4 cells, MTT.
Format: cell-based
Method: Persistently HIV (HTLV-IIIB strain) infected human T cell strain Molt-4 clone8 was cultured in RPMI-1640 medium supplemented with 10% fetal bovine serum and the supernatant was filtered, then the virus titer was measured and stored at −80° C. Polymorphic mutations in HIV-1-infected patients have been observed in amino acids 124 and 125 on the HIV-1 integrase (IN) gene. A point mutation was introduced on the amino acids 124 and/or 125 of IN gene of the HIV-1 NL-432 recombinant molecular clone to generate a mutant virus plasmid construct. These mutant virus plasmids were transfected into 293T cells, and after two days, the supernatant was filtered and then the virus titer was measured and stored at −80° C. Each anti-HIV active substance was diluted with culture medium described above to the designated concentration, which was dispensed into 96-well microtiter plate by 50 μL. Next, 100 μL of MT-4 cell suspension (2.5×10^4 cells) was dispensed into each well, then 50 μl of HIV-containing supernatant diluted with culture medium described above was added thereto (60 pfu (plaque forming unit)).
Cells were cultured at 37° C. in CO2 incubator for four days, then 30 μL of MTT (3-(4,5-dimethylthiazole-2-yl)-2,5-diphenyltetrazolyum bromide) reagent (5 mg/mL in PBS) was added to all wells followed by incubation for 1 hour. In this step, MTT was reduced to insoluble formazan in living cells. To elute generated formazan, 150 μL of the culture supernatant was removed from all wells, then 150 μL of cell lysis solution (10% Triton X-100 and 0.4% (v/v)-HCl containing isopropanol) was added thereto, followed by shaking with a plate mixer. The formazan was measured with micro plate reader at OD: 560 nm and 690 nm (reference wavelength) and the result was compared with the reference wells. EC50 means the compound concentration at which 50% of cytotoxicity caused by virus infection is inhibited.

First: Cc1ccc(-c2c([C@H](OC(C)(C)C)C(=O)O)c(C)c3c4c2cc(C)n4C(C)CN3CCN(C)C)cc1 (mixture of isomers) [Compound I-144]
Second: Cc1c([C@H](OC(C)(C)C)C(=O)O)c(-c2ccc(Cl)cc2)c2cc(C)n3c2c1N(CCN(C)C)CC3 [Compound I-075]
The EC50 of the first is 1.5-fold higher: 37 nM for the first, 24 nM for the second. The second is the more potent here.

`Cc1c([C@H](OC(C)(C)C)C(=O)O)c(-c2ccc(Cl)cc2)c2cc(C)n3c2c1N(S(=O)(=O)CCN(C)C)CC3` [Compound I-030] and `Cc1c([C@H](OC(C)(C)C)C(=O)O)c(-c2ccc(Cl)cc2)c2cc(C)n3c2c1N(S(C)(=O)=O)CCC3` [Compound I-078] are within 1.5-fold of each other in EC50: 23 nM for the first, 21 nM for the second.

Compared with `COC(=O)N1CCn2c(C)cc3c(-c4ccc(Cl)cc4)c([C@H](OC(C)(C)C)C(=O)O)c(C)c1c32` [Compound I-031], `CCOC(=O)N1CCn2c(C)cc3c(-c4ccc(Cl)cc4)c([C@H](OC(C)(C)C)C(=O)O)c(C)c1c32` [Compound I-064] is 1.7-fold higher in EC50: 11 nM for the first, 19 nM for the second.

First: Cc1c([C@H](OC(C)(C)C)C(=O)O)c(-c2ccc(Cl)cc2)c2cc(C)n3c2c1N(S(=O)(=O)C1CC1)CC3 [Compound I-032]
Second: Cc1c([C@H](OC(C)(C)C)C(=O)O)c(-c2ccc(Cl)cc2)c2cc(Cl)n3c2c1N(S(C)(=O)=O)CC3 [Compound I-094]
The EC50 of the first is 2.4-fold lower: 5 nM for the first, 12 nM for the second.

First: [2H]C1([2H])N(S(C)(=O)=O)c2c(C)c([C@H](OC(C)(C)C)C(=O)O)c(-c3ccc(Cl)cc3)c3cc(C)n(c23)C1([2H])[2H] [Compound I-034]
Second: [2H]C1([2H])N(C)c2c(C)c([C@H](OC(C)(C)C)C(=O)O)c(-c3ccc(Cl)cc3)c3cc(C)n(c23)C1([2H])[2H] [Compound I-066]
The EC50 of the first is 2.4-fold higher: 9.6 nM for the first, 4 nM for the second. The second is the more potent here.

`Cc1c([C@H](OC(C)(C)C)C(=O)O)c(-c2ccc(Cl)cc2)c2cc(C)n3c2c1N(CC(F)F)CC3` [Compound I-035] and `COCCN1CCn2c(C)cc3c(-c4ccc(Cl)cc4)c([C@H](OC(C)(C)C)C(=O)O)c(C)c1c32` [Compound I-076] are within 1.5-fold of each other in EC50: 14 nM for the first, 16 nM for the second.

Going from `Cc1c([C@H](OC(C)(C)C)C(=O)O)c(-c2ccc(Cl)cc2)c2cc(C)n3c2c1N(S(C)(=O)=O)[C@@H](C)C3` [Compound I-036] to `Cc1c([C@H](OC(C)(C)C)C(=O)O)c(-c2ccc(Cl)cc2)c2cc(C)n3c2c1N(S(C)(=O)=O)[C@H](C)C3` [Compound I-060], the EC50 rises from 6.5 nM to 14 nM (2.2-fold). The first is the more potent here.

`Cc1c([C@H](OC(C)(C)C)C(=O)O)c(-c2ccc(Cl)cc2)c2c(Cl)c(C)n3c2c1N(C)CC3` [Compound I-037] and `Cc1c([C@H](OC(C)(C)C)C(=O)O)c(-c2ccc(Cl)cc2)c2c(C)c(C)n3c2c1N(C)CC3` [Compound I-080] are within 1.5-fold of each other in EC50: 30 nM for the first, 33 nM for the second.

Going from `CCNC(=O)N1CCn2c(C)cc3c(-c4ccc(Cl)cc4)c([C@H](OC(C)(C)C)C(=O)O)c(C)c1c32` [Compound I-038] to `Cc1c([C@H](OC(C)(C)C)C(=O)O)c(-c2ccc(Cl)cc2)c2cc(C)n3c2c1N(C)CCC3` [Compound I-079], the EC50 falls from 45 nM to 17 nM (2.6-fold). The second is the more potent here.

`[2H]C1([2H])N(S(C)(=O)=O)c2c(C)c([C@H](OC(C)(C)C)C(=O)O)c(-c3ccc(Cl)cc3)c3c(F)c(C)n(c23)C1([2H])[2H]` [Compound I-040] and `Cc1c([C@H](OC(C)(C)C)C(=O)O)c(-c2ccc(Cl)cc2)c2c(F)c(C)n3c2c1N(S(C)(=O)=O)CC3` [Compound I-052] are within 1.5-fold of each other in EC50: 11 nM for the first, 9 nM for the second.

Going from `Cc1c([C@H](OC(C)(C)C)C(=O)O)c(-c2ccc(Cl)cc2)c2cc(C)n3c2c1N(S(C)(=O)=O)[C@@H](CCN1CCOCC1)C3` [Compound I-045] to `Cc1c([C@H](OC(C)(C)C)C(=O)O)c(-c2ccc(Cl)cc2)c2cc(C)n3c2c1N(S(C)(=O)=O)[C@@H](CF)C3` [Compound I-095], the EC50 falls from 58 nM to 14 nM (4.1-fold). The second is the more potent here.

Going from `CC(=O)N1c2c(C)c([C@H](OC(C)(C)C)C(=O)O)c(-c3ccc(Cl)cc3)c3cc(C)n(c23)C[C@@H]1C` [Compound I-046] to `CC(=O)N1c2c(C)c([C@H](OC(C)(C)C)C(=O)O)c(-c3ccc(Cl)cc3)c3cc(C)n(c23)C[C@H]1C` [Compound I-061], the EC50 falls from 18 nM to 9.6 nM (1.9-fold). The second is the more potent here.

First: COCC(=O)N1CCn2c(C)cc3c(-c4ccc(C)cc4)c([C@H](OC(C)(C)C)C(=O)O)c(C)c1c32 [Compound I-047]
Second: COc1ccc(-c2c([C@H](OC(C)(C)C)C(=O)O)c(C)c3c4c2cc(C)n4CCN3C)cc1 [Compound I-074]
The EC50 of the first is 1.7-fold higher: 46 nM for the first, 27 nM for the second. The second is the more potent here.

Compared with `Cc1c([C@H](OC(C)(C)C)C(=O)O)c(-c2ccc(C(F)F)cc2)c2cc(C)n3c2c1N(C)CC3` [Compound I-049], `Cc1c([C@H](OC(C)(C)C)C(=O)O)c(-c2ccc(C(F)(F)F)cc2)c2cc(C)n3c2c1N(C)CC3` [Compound I-050] is 2.2-fold higher in EC50: 22 nM for the first, 49 nM for the second. The first is the more potent here.

Compared with `Cc1c(F)cc(-c2c([C@H](OC(C)(C)C)C(=O)O)c(C)c3c4c2cc(C)n4CCN3C)cc1F` [Compound I-051], `Cc1c([C@H](OC(C)(C)C)C(=O)O)c(-c2cc(F)c(Cl)c(F)c2)c2cc(C)n3c2c1N(C)CC3` [Compound I-073] is 1.8-fold higher in EC50: 22 nM for the first, 39 nM for the second.

Compared with `Cc1c([C@H](OC(C)(C)C)C(=O)O)c(-c2ccc(Cl)cc2)c2cc(C)n3c2c1N(C)[C@@H](C)C3` [Compound I-053], `Cc1c([C@H](OC(C)(C)C)C(=O)O)c(-c2ccc(Cl)cc2)c2cc(C)n3c2c1N(C)[C@H](C)C3` [Compound I-057] is 2.1-fold lower in EC50: 5.6 nM for the first, 2.7 nM for the second.

Going from `Cc1c([C@H](OC(C)(C)C)C(=O)O)c(-c2ccc(Cl)cc2)c2cc(C)n3c2c1NC(=O)C3C` (stereo partly shown) [Compound I-054] to `Cc1c([C@H](OC(C)(C)C)C(=O)O)c(-c2ccc(Cl)cc2)c2cc(C)n3c2c1N(C)S(=O)(=O)C3` [Compound I-072], the EC50 falls from 48 nM to 13 nM (3.7-fold).

Going from `Cc1c([C@H](OC(C)(C)C)C(=O)O)c(-c2ccc(Cl)cc2)c2ccn3c2c1N(S(C)(=O)=O)CC3` [Compound I-056] to `Cc1c([C@H](OC(C)(C)C)C(=O)O)c(-c2ccc(F)cc2)c2cc(C)n3c2c1N(S(C)(=O)=O)CC3` [Compound I-096], the EC50 falls from 59 nM to 19 nM (3.1-fold). The second is the more potent here.

`COC(=O)N1c2c(C)c([C@H](OC(C)(C)C)C(=O)O)c(-c3ccc(Cl)cc3)c3cc(C)n(c23)C[C@@H]1C` [Compound I-065] and `CCC(=O)N1c2c(C)c([C@H](OC(C)(C)C)C(=O)O)c(-c3ccc(Cl)cc3)c3cc(C)n(c23)C[C@@H]1C` [Compound I-069] are within 1.5-fold of each other in EC50: 12 nM for the first, 16 nM for the second.

`Cc1ccc(-c2c([C@H](OC(C)(C)C)C(=O)O)c(C)c3c4c2cc(Cl)n4CCN3C)cc1` [Compound I-068] and `Cc1ccc(-c2c([C@H](OC(C)(C)C)C(=O)O)c(C)c3c4c2cc(Br)n4CCN3C)cc1` [Compound I-081] are within 1.5-fold of each other in EC50: 6.8 nM for the first, 9.6 nM for the second.

Compared with `Cc1c([C@H](OC(C)(C)C)C(=O)O)c(-c2ccc(Cl)cc2)c2cc(C)n3c2c1N(C(=O)C1CC1)[C@@H](C)C3` [Compound I-070], `Cc1c([C@H](OC(C)(C)C)C(=O)O)c(-c2ccc(Cl)cc2)c2cc(C)n3c2c1N(CC1CC1)[C@@H](C)C3` [Compound I-083] is 2.9-fold lower in EC50: 43 nM for the first, 15 nM for the second. The second is the more potent here.

First: Cc1c([C@H](OC(C)(C)C)C(=O)O)c(-c2ccc(Cl)cc2)c2cc(C)n3c2c1N(C)S(=O)(=O)CC3 [Compound I-071]
Second: CCc1ccc(-c2c([C@H](OC(C)(C)C)C(=O)O)c(C)c3c4c2cc(C)n4CCN3C)cc1 [Compound I-082]
The EC50 of the first is 7.4-fold higher: 45 nM for the first, 6.1 nM for the second.

First: COC[C@H]1Cn2c(C)cc3c(-c4ccc(Cl)cc4)c([C@H](OC(C)(C)C)C(=O)O)c(C)c(c32)N1S(C)(=O)=O [Compound I-086]
Second: COC[C@@H]1Cn2c(C)cc3c(-c4ccc(Cl)cc4)c([C@H](OC(C)(C)C)C(=O)O)c(C)c(c32)N1S(C)(=O)=O [Compound I-087]
The EC50 of the first is 1.8-fold lower: 11 nM for the first, 20 nM for the second.

Going from `Cc1c([C@H](OC(C)(C)C)C(=O)O)c(-c2ccc(Cl)cc2)c2cc(C)n3c2c1N(S(C)(=O)=O)[C@@H](C(F)F)C3` [Compound I-088] to `Cc1c([C@H](OC(C)(C)C)C(=O)O)c(-c2ccc(F)cc2)c2cc(C)n3c2c1N(C)[C@H](C)C3` [Compound I-092], the EC50 falls from 27 nM to 7.6 nM (3.6-fold). The second is the more potent here.

`COCCN1CCn2c(C)cc3c(-c4ccc(F)cc4)c([C@H](OC(C)(C)C)C(=O)O)c(C)c1c32` [Compound I-089] and `Cc1c([C@H](OC(C)(C)C)C(=O)O)c(-c2ccc(F)cc2)c2cc(C)n3c2c1N(C)[C@@H](C)C3` [Compound I-093] are within 1.5-fold of each other in EC50: 18 nM for the first, 16 nM for the second.

Same assay, conditions: read-out: EC50 against T125A mutant virus; T125A mutant virus (HIV-1 NL-432 IN gene), MT-4 cells, MTT

Going from `Cc1c([C@H](OC(C)(C)C)C(=O)O)c(-c2ccc(Cl)cc2)c2cc(C)n3c2c1NC(=O)C3C` (stereo partly shown) [Compound I-055] to `Cc1c([C@H](OC(C)(C)C)C(=O)O)c(-c2ccc(Cl)cc2)c2cc(C)n3c2c1N(C)CC3C` (stereo partly shown) [Compound I-090], the EC50 rises from 24 nM to 39 nM (1.6-fold).

Going from `Cc1c([C@H](OC(C)(C)C)C(=O)O)c(-c2ccc(Cl)cc2)c2cc(C)n3c2c1N(S(C)(=O)=O)CC3C` (stereo partly shown) [Compound I-062] to `Cc1c([C@H](OC(C)(C)C)C(=O)O)c(-c2ccc(Cl)cc2)c2cc(C)n3c2c1N(C)CC3C` (stereo partly shown) [Compound I-091], the EC50 falls from 34 nM to 2 nM (17-fold). The second is the more potent here.

In the case of `Cc1c([C@H](OC(C)(C)C)C(=O)O)c(-c2ccc(Cl)cc2)c2cc(C)n3c2c1N(S(C)(=O)=O)CC3C` (stereo partly shown) [Compound I-063], the EC50 is reported as 4.5 nM.

Reference: patent US10494380B2, “Nitrogen-containing tricyclic derivatives having HIV replication inhibitory activity” (priority 2015, dated 2019)
